Assay results: patent publication US20100144793A1, “NOVEL COMPOUNDS FOR THE TREATMENT OF DISEASES ASSOCIATED WITH AMYLOID OR AMYLOID-LIKE PROTEINS” (AC IMMUNE SA, priority 2006, published 2010)
Counter-ions that a name gives are not always drawn. Like-named read-outs stand apart in the source and are kept apart here.

Assays:
Aβ1-42 = target: T1, Aβ1-42 (Homo sapiens, UniProt P05067); assay: Thioflavin T spectrofluorescence assay: inhibition of Aβ1-42 aggregation; type: biochemical
T1 construct: Aβ1-42 lyophilized powder (Bachem) was reconstituted in hexafluoroisopropanol (HFIP) to 1 mM; purchased Bachem
Experimental: (§1) The objective of this example was to evaluate the capacity of the compounds of the invention to inhibit the aggregation of (Aβ)1-42 peptide and to disaggregate pre-aggregated Aβ1-42 using a thioflavin T spectrofluorescence assay.
(§2) Aβ1-42 lyophilized powder (Bachem) was reconstituted in hexafluoroisopropanol (HFIP) to 1 mM. The peptide solution was sonicated for 15 min at room temperature, agitated overnight, and aliquots were placed into non-siliconized microcentrifuge tubes. The HFIP was then evaporated under a stream of argon. The resulting peptide film was dried under vacuum for 10 min, tightly sealed and stored at −80° C. until used.
Aβ1-42 peptide film was dissolved in DMSO to reach 400 μM. Assay solution in PBS was prepared in non-siliconized incubation tubes to reach the following concentrations: 330 μM small molecule, 33 μM Aβ1-42, 10 μM thioflavin T (ThT), and 12.8% DMSO. Therefore, the final molar ratio of small molecule to Aβ1-42 was 10:1. A positive control without a small molecule was prepared to measure maximum RFU. A negative control without Aβ1-42 was prepared for each small molecule. 3-aminopyrazole trimer (Trimer) was tested in all assays to ascertain reproducibility between independent experiments. The solutions were then incubated for 24 h at 37° C., and the spectrofluorescence (relative fluorescence units; RFU) read in six replicates in black 384-well assay plates (Perkin-Elmer) on a Perkin-Elmer FluoroCount spectrofluorometer. Inhibition of aggregation is expressed as mean % inhibition±1 standard deviation (SD) according to the following equation: […]

preformed Aβ1-42 fibers = target: T2, preformed Aβ1-42 fibers (Homo sapiens, UniProt P05067); assay: Thioflavin T spectrofluorescence assay: disaggregation of preformed Aβ1-42 fibers; type: biochemical; conditions: Table 5; 330 μM small molecule, 10:1 molar ratio to pre-aggregated Aβ1-42, additional 24 h at 37° C.; mean ± SD of two independent experiments
T2 construct: Aβ1-42 lyophilized powder (Bachem) was reconstituted in hexafluoroisopropanol (HFIP) to 1 mM; purchased Bachem
Experimental: as §1, §2
This solution was then allowed to aggregate at 37° C. for 24 h after which a small molecule and ThT were added to obtain a final concentration of 330 μM small molecule and 10 μM ThT. […] This solution was then incubated for additional 24 h at 37° C. The spectrofluorescence was then measured and % disaggregation calculated. Disaggregation is expressed as mean % disaggregation±1 standard deviation (SD) according to the same equation as for the inhibition of aggregation.

[1] = target: T3, Oregon Green labeled Aβ(1-42) (Homo sapiens, UniProt P05067); assay: FCS-assay with 5 nM Oregon Green labeled Aβ-peptide (disaggregation of preformed aggregates); type: biochemical
T3 construct: DMSO-stock solutions of Oregon Green labeled Aβ(1-42) 1:1 with deionized water
Experimental: In order to analyse the disaggregating properties of the compounds, preformed aggregates were used, which were induced straight before the FCS-measurement by diluting low concentrated (500 nM) DMSO-stock solutions of Oregon Green labeled Aβ(1-42) 1:1 with deionized water. The final concentration of Oregon Green labeled Aβ-peptide was 5 nM in 1×PBS and 3% DMSO.
To improve the reproducibility of the measurements of the concentration dependencies all samples were prepared fourfold.

[2] = Table 3, 10:1 small molecule to Aβ1-42 molar ratio, 24 h at 37° C., mean ± SD of two independent experiments, read-out: % Inhibition
[3] = read-out: Percentage of the “number of peaks” value compared to the control reaction without added ligand
[4] = read-out: Percentage of the “peaks × height“ value compared to the control reaction without added ligand

T3 sequence (P05067 672-713 limits assumed): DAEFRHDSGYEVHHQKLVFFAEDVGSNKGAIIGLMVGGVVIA
T2 sequence (P05067 672-713 limits assumed): as above
T1 sequence (P05067 672-713 limits assumed): as above

inhibition at 330 µM (Aβ1-42; [2]) [%]	SMILES	melting point	other results
35.9 ± 4.7	Cc1ccc(-c2cc(NCC(=O)Nc3cc(C)[nH]n3)n[nH]2)cc1 [Compound 1x, N-(5-Methyl-1H-pyrazol-3-yl)-2-(5-p-tolyl-1H-pyrazol-3-ylamino)acetamide]	180 °C	
	Cc1ccc(-c2cc(NCCNc3cc(-c4ccc(Cl)cc4)[nH]n3)n[nH]2)cc1 [Compound 1ae, N-(5-(4-Chlorophenyl)-1H-pyrazol-3-yl)-N′-(5-p-tolyl-1H-pyrazol-3-yl)ethane-1,2-diamine bishydrochloride]		% disaggregation (preformed Aβ1-42 fibers): 76.0 ± 2.1%; remaining activity at 0.01 µM [1, 3]: 72.3%; remaining activity at 0.1 µM [1, 3]: 59.8%; remaining activity at 0.2 µM [1, 3]: 45.5%; remaining activity at 0.01 µM [1, 4]: 65.5%; remaining activity at 0.1 µM [1, 4]: 60.4%; remaining activity at 0.2 µM [1, 4]: 53.1%; inhibition at 330 µM (Aβ1-42; 24 h): 83.7 ± 1.7%
	Clc1ccc(-c2cc(NCCNc3cc(-c4cccs4)[nH]n3)n[nH]2)cc1 [Compound 1ah, N-(5-(4-Chlorophenyl)-1H-pyrazol-3-yl)-N′-(5-(thiophen-2-yl)-1H-pyrazol-3-yl)ethane-1,2-diamine bishydrochloride]		% disaggregation (preformed Aβ1-42 fibers): 88.8 ± 1.6%; remaining activity at 0.01 µM [1, 3]: 44.4%; remaining activity at 0.1 µM [1, 3]: 61.1%; remaining activity at 0.2 µM [1, 3]: 60.8%; remaining activity at 1 µM [1, 3]: 83.7%; remaining activity at 5 µM [1, 3]: 82.6%; remaining activity at 25 µM [1, 3]: 75%; remaining activity at 100 µM [1, 3]: 40.9%; remaining activity at 0.01 µM [1, 4]: 38.9%; remaining activity at 0.1 µM [1, 4]: 44.8%; remaining activity at 0.2 µM [1, 4]: 69.3%; remaining activity at 1 µM [1, 4]: 136%; remaining activity at 5 µM [1, 4]: 112%; remaining activity at 25 µM [1, 4]: 254%; remaining activity at 100 µM [1, 4]: 143%; inhibition at 330 µM (Aβ1-42; 24 h): 89.1 ± 2.5%
20.8 ± 5.7	O=C(CNc1cc(-c2ccc(Cl)cc2)[nH]n1)Nc1cc(-c2cccs2)[nH]n1 [Compound 1ag, N-(5-(Thiophen-2-yl)-1H-pyrazol-3-yl)-2-(5-(4-chlorophenyl)-1H-pyrazol-3-ylamino)acetamide]	257 °C	
22.1 ± 12.5	Cc1ccc(-c2cc(NC(=O)CNc3cc(-c4cccs4)[nH]n3)n[nH]2)cc1 [Compound 1z, 2-(5-(Thiophen-2-yl)-1H-pyrazol-3-ylamino)-N-(5-p-tolyl-1H-pyrazol-3-yl)acetamide]	227 °C	
37.6 ± 10.4	O=C(CNc1cc(-c2cccs2)[nH]n1)Nc1cc(-c2ccc(Cl)cc2)[nH]n1 [Compound 1af, 2-(5-(Thiophen-2-yl)-1H-pyrazol-3-ylamino)-N-(5-(4-chlorophenyl)-1H-pyrazol-3-yl)acetamide]	233 °C	
30.7 ± 3.8	Cc1ccc(-c2cc(NCC(=O)Nc3cc(-c4ccc(C)cc4)[nH]n3)n[nH]2)cc1 [Compound 1y, N-(5-p-Tolyl-1H-pyrazol-3-yl)-2-(5-p-tolyl-1H-pyrazol-3-ylamino)acetamide]	238 °C	
	Fc1ccc(-c2cc(NCCNc3cc(-c4ccc(F)cc4)[nH]n3)n[nH]2)cc1 (as salt: hydrochloride) [Compound 1ak, N^1,N^2-bis(5-(4-Fluorophenyl)-1H-pyrazol-3-yl)ethane-1,2-diamine bishydrochloride]	239 to 240 °C	
12.4 ± 5.1	Cc1ccc(-c2cc(NCC(=O)Nc3cc(-c4ccc(Cl)cc4)[nH]n3)n[nH]2)cc1 [Compound 1ac, N-(5-(4-Chlorophenyl)-1H-pyrazol-3-yl)-2-(5-p-tolyl-1H-pyrazol-3-ylamino)acetamide]	257 °C	
	Clc1ccc(-c2c[nH]nc2NCCNc2n[nH]cc2-c2ccc(Cl)cc2)cc1 (as salt: hydrochloride) [Compound 1s, N^1,N^2-bis(4-(4-Chlorophenyl)-1H-pyrazol-3-yl)ethane-1,2-diamine bishydrochloride]	228 °C	
	c1ccc(Cc2cc(NCCNc3cc(Cc4ccccc4)[nH]n3)n[nH]2)cc1 (as salt: hydrochloride) [Compound 1l, N^1,N^2-bis(5-Benzyl-1H-pyrazol-3-yl)ethane-1,2-diamine dihydrochloride]	177 to 178 °C	
	c1csc(-c2cc(NCCNc3cc(-c4cccs4)[nH]n3)n[nH]2)c1 (as salt: hydrochloride) [Compound 1h, N^1,N^2-bis(5-(2-Thienyl)-1H-pyrazol-3-yl)ethane-1,2-diamine bishydrochloride]	147 °C	
	Clc1ccc(-c2cc(NCCNc3cc(-c4ccc(Cl)cc4)[nH]n3)n[nH]2)cc1 (as salt: hydrochloride) [Compound 1f, N^1,N^2-bis(5-(4-Chlorophenyl)-1H-pyrazol-3-yl)ethane-1,2-diamine bishydrochloride]	195 °C	
	COc1ccc(-c2cc(NCCNc3cc(-c4ccc(OC)cc4)[nH]n3)n[nH]2)cc1 [Compound 1g, N^1,N^2-bis(5-(4-Methoxyphenyl)-1H-pyrazol-3-yl)ethane-1,2-diamine bishydrochloride]		% disaggregation (preformed Aβ1-42 fibers): 66.6 ± 4.2%; inhibition at 330 µM (Aβ1-42; 24 h): 68.2 ± 7.7%
	Cc1ccc(-c2cc(NCC(C)(C)CNc3cc(-c4ccc(C)cc4)[nH]n3)n[nH]2)cc1 (as salt: hydrochloride) [Compound 1an, dihydrochloride]	151 °C	
50.4 ± 0.9	Cc1ccc(-c2cc(NCC(=O)Nc3cc(-c4cccs4)[nH]n3)n[nH]2)cc1 [Compound 1aa, N-(5-(Thiophen-2-yl)-1H-pyrazol-3-yl)-2-(5-p-tolyl-1H-pyrazol-3-ylamino)acetamide]	246 °C	
	Cc1ccc(-c2cc(NCc3ccc(CNc4cc(-c5ccc(C)cc5)[nH]n4)cc3)n[nH]2)cc1 (as salt: hydrochloride) [Compound 1ap, N,N′-(1,4-Phenylenebis(methylene))bis(5-p-tolyl-1H-pyrazol-3-amine) dihydrochloride]	184 °C	
	c1c(NCCNc2cc(C3CC3)[nH]n2)n[nH]c1C1CC1 (as salt: hydrochloride) [Compound 1i, N^1,N^2-bis(5-Cyclopropyl-1H-pyrazol-3-yl)ethane-1,2-diamine bishydrochloride]	205 to 206 °C	
	c1coc(-c2cc(NCCNc3cc(-c4ccco4)[nH]n3)n[nH]2)c1 (as salt: hydrochloride) [Compound 1m, N^1,N^2-bis(5-(2-Furyl)-1H-pyrazol-3-yl)ethane-1,2-diamine bishydrochloride]	214 to 216 °C	
	c1ccc(-c2cc(NCCNc3cc(-c4ccccc4)[nH]n3)n[nH]2)cc1 (as salt: hydrochloride) [Compound 1e, N^1,N^2-bis(5-Phenyl)-1H-pyrazol-3-yl)ethane-1,2-diamine bishydrochloride]	204 °C	
	c1[nH]nc(NCCNc2n[nH]cc2C2CC2)c1C1CC1 (as salt: hydrochloride) [Compound 1v, N^1,N^2-bis(4-Cyclopropyl-1H-pyrazol-3-yl)ethane-1,2-diamine bishydrochloride]	178 to 182 °C (dec.)	
55 ± 11.9	Cc1ccc(-c2cc(NC(=O)CNc3cc(-c4ccc(Cl)cc4)[nH]n3)n[nH]2)cc1 [Compound 1ad, 2-(5-(4-Chlorophenyl)-1H-pyrazol-3-ylamino)-N-(5-p-tolyl-1H-pyrazol-3-yl)acetamide]	251 °C	
	Cc1ccc(-c2cc(NCCNc3cc(-c4ccc(Cl)cc4)[nH]n3)n[nH]2)cc1 (as salt: hydrochloride) [Compound 1ae, N-(5-(4-Chlorophenyl)-1H-pyrazol-3-yl)-N′-(5-p-tolyl-1H-pyrazol-3-yl)ethane-1,2-diamine bishydrochloride]	182 °C	
	Clc1ccc(-c2cc(NCCNc3cc(-c4cccs4)[nH]n3)n[nH]2)cc1 (as salt: hydrochloride) [Compound 1ah, N-(5-(4-Chlorophenyl)-1H-pyrazol-3-yl)-N′-(5-(thiophen-2-yl)-1H-pyrazol-3-yl)ethane-1,2-diamine bishydrochloride]	139 °C	
